Experiments:
hr 5-HTT = hr 5-HTT (Homo sapiens, UniProt P31645); assay: receptor profile (Table S4); format: binding
hr D3 = hr D3 (Homo sapiens, UniProt P35462); assay: receptor profile (Table S4); format: binding
[1] = target: T1, purified L. donovani proteasome (Leishmania donovani, UniProt A0A3Q8IIY4+A0A3S7XA80); assay: chymotrypsin-like activity of purified L. donovani proteasome; format: biochemical; settings: half-maximum inhibition of chymotrypsin-like activity of purified L. donovani proteasome; mean, n = 4 technical replicates
T1 sequence (A0A3Q8IIY4 100-302): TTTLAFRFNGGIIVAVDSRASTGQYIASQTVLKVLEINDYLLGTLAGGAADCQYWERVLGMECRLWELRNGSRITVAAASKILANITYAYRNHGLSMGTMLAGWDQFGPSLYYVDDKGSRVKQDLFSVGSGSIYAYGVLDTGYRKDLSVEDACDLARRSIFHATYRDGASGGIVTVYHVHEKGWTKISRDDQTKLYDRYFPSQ
T1 sequence (A0A3S7XA80 1-206): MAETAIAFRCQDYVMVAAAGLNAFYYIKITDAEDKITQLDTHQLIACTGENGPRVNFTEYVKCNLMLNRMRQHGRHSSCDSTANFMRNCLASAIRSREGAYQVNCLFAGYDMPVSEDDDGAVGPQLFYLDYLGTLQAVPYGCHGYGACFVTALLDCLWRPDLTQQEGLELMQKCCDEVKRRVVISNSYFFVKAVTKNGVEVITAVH

hr Alpha2B = target: T2, hr Alpha2B (Homo sapiens, UniProt P18089); assay: receptor profile (Table S4); format: binding
T2 sequence (P18089 1-450): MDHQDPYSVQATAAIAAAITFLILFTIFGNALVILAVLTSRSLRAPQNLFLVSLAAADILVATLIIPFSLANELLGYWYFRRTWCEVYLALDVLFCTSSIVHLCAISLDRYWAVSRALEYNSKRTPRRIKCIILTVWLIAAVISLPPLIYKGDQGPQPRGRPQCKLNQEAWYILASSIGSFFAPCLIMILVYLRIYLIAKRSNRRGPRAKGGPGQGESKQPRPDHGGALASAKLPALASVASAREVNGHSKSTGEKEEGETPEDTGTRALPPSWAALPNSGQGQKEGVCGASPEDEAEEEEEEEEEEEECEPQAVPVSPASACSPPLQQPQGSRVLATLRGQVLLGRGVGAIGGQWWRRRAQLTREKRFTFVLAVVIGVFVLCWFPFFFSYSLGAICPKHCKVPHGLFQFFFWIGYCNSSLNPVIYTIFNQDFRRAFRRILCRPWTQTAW

hr 5-HT2B ag = hr 5-HT2B ag (Homo sapiens, UniProt P41595); assay: receptor profile (Table S4); format: biochemical
hr 5-HT2B ag, sequence (P41595 whole entry): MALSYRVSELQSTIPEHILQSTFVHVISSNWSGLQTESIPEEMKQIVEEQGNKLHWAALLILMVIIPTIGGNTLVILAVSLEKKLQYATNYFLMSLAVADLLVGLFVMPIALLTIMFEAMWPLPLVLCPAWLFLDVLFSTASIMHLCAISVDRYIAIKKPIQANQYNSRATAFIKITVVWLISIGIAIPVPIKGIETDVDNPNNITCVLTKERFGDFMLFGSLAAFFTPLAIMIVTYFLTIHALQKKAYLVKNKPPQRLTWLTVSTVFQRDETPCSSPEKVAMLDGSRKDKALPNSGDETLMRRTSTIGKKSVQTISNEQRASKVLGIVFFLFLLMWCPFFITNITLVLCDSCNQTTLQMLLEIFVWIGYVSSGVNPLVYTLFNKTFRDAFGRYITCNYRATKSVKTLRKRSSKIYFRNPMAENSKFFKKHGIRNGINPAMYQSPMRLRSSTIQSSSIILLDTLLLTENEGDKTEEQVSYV

hr PPARg ag = target: T3, hr PPARg ag (Homo sapiens, UniProt P37231); assay: receptor profile (Table S4); format: biochemical
T3 sequence (P37231 1-505): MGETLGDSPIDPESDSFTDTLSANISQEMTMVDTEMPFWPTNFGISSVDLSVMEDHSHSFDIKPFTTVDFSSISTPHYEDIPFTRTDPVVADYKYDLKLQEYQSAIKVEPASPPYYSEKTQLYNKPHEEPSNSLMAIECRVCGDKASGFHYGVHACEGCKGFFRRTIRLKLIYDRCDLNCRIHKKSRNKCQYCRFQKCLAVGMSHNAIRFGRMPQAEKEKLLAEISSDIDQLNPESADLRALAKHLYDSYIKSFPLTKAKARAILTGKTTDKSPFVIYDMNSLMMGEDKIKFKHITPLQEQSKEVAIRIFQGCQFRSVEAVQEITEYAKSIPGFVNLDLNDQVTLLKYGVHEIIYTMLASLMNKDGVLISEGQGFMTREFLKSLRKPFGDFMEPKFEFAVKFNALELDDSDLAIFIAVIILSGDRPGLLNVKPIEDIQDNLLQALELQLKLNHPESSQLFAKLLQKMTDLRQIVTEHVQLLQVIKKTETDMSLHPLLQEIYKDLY

hr H3 = hr H3 (Homo sapiens, UniProt Q9Y5N1); assay: receptor profile (Table S4); format: binding
hr H3, sequence (Q9Y5N1 whole entry): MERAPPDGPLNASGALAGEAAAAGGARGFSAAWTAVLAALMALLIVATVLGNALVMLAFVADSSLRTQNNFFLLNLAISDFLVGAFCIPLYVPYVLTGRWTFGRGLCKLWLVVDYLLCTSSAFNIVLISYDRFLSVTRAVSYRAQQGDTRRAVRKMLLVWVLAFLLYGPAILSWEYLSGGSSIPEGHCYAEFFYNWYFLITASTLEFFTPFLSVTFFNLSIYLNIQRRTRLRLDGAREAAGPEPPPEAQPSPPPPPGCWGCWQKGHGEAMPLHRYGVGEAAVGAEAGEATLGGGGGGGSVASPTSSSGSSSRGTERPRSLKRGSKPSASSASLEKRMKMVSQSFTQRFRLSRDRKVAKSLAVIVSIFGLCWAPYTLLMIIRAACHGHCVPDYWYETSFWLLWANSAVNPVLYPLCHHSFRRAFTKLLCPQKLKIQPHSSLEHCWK

[2] = metabolite profile in rat hepatocytes; format: in vitro ADME; settings: 10 μM of 1 for 4 h, UV 250 nm, normalized to largest peak
[3] = mouse plasma protein binding; format: in vitro ADME
[4] = microsomal extraction ratio, 1 h incubation in microsomes
hr M1 = target: T4, hr M1 (Homo sapiens, UniProt P11229); assay: receptor profile (Table S4); format: binding
T4 sequence (P11229 1-460): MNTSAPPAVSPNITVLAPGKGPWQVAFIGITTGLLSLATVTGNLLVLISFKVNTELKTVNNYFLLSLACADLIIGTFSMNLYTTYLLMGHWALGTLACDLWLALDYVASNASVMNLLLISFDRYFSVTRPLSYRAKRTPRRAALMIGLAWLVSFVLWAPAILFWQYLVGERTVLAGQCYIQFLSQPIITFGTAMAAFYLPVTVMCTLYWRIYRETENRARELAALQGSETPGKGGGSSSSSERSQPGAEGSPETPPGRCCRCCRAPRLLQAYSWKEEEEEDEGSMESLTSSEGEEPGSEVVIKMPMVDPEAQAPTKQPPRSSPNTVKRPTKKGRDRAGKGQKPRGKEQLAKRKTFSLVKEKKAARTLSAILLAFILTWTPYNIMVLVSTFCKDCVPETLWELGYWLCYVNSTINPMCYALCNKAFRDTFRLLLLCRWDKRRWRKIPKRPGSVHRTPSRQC

hr 5-HTT, sequence (P31645 whole entry): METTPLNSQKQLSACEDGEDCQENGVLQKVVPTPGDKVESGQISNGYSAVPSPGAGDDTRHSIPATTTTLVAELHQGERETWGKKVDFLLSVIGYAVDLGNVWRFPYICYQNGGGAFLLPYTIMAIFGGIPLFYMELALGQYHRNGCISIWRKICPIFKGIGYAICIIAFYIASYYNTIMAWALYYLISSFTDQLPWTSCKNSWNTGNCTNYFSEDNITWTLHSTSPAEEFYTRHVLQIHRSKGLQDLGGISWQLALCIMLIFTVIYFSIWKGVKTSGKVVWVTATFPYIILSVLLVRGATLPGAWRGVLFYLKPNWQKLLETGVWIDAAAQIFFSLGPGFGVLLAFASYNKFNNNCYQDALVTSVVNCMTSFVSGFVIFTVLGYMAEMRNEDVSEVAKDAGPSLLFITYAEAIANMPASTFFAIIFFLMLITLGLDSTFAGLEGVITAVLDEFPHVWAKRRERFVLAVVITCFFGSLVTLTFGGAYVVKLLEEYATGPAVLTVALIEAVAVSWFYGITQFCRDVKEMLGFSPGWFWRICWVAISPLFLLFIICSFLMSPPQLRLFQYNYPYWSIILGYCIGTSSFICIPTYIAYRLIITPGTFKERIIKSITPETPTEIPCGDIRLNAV
hr D3, sequence (P35462 whole entry): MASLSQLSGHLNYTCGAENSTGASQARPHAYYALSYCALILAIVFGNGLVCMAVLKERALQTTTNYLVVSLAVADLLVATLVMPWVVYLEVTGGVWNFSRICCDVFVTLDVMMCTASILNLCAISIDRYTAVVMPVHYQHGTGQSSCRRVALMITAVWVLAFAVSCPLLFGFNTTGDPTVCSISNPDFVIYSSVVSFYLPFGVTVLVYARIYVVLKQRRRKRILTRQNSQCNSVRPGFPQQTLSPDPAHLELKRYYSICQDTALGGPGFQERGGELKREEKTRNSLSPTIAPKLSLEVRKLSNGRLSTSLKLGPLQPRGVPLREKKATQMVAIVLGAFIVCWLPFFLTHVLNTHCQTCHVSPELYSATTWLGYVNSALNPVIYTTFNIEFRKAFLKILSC

Structure (SMILES): Cc1nc(C)c(C(=O)Nc2ccc(F)c(-c3nc4ncc(-c5ncccc5C)cn4n3)c2)o1 [compound 1, N-(4-Fluoro-3-(6-(3-methylpyridin-2-yl)-[1,2,4]triazolo[1,5-a]pyrimidin-2-yl)phenyl)-2,4-dimethyloxazole-5-carboxamide]
- EC50/IC50 (hr 5-HTT; hr 5-HTT): > 30 µM
- inhibition at 10 µM (hr 5-HTT; read-out: % inh/act @ 10 µM): 17%
- inhibition at 30 µM (hr 5-HTT; read-out: % inh/act @ 30 µM): 12%
- EC50/IC50 (hr D3; hr D3): > 30 µM
- inhibition at 10 µM (hr D3; read-out: % inh/act @ 10 µM): 9%
- inhibition at 30 µM (hr D3; read-out: % inh/act @ 30 µM): 7%
- IC50 [1]: 0.04 µM
- EC50/IC50 (hr Alpha2B; hr Alpha2B): > 30 µM
- inhibition at 10 µM (hr Alpha2B; read-out: % inh/act @ 10 µM): 13%
- inhibition at 30 µM (hr Alpha2B; read-out: % inh/act @ 30 µM): 16%
- EC50/IC50 (hr 5-HT2B ag; hr 5-HT2B ag): > 30 µM
- inhibition at 10 µM (hr 5-HT2B ag; read-out: % inh/act @ 10 µM): -6%
- inhibition at 30 µM (hr 5-HT2B ag; read-out: % inh/act @ 30 µM): -3%
- EC50/IC50 (hr PPARg ag; hr PPARg ag): > 30 µM
- inhibition at 10 µM (hr PPARg ag; read-out: % inh/act @ 10 µM): 4%
- inhibition at 30 µM (hr PPARg ag; read-out: % inh/act @ 30 µM): 5%
- EC50/IC50 (hr H3; hr H3): > 30 µM
- inhibition at 10 µM (hr H3; read-out: % inh/act @ 10 µM): 9%
- inhibition at 30 µM (hr H3; read-out: % inh/act @ 30 µM): 14%
- abundance rat [2]: +++ (+++ > 75%)
- fraction unbound [3]: 0.056
- ER mouse [4]: < 0.21
- EC50/IC50 (hr M1; hr M1): > 30 µM
- inhibition at 10 µM (hr M1; read-out: % inh/act @ 10 µM): 25%
- inhibition at 30 µM (hr M1; read-out: % inh/act @ 30 µM): 26%
